Earlier results, collected in patent US10034966B2, “Coated vaso-occlusive device and methods for treatment of aneurysms” (Carnegie Mellon University, priority 2013, dated 2018).

Test system: L929 fibroblasts

SMILES: COC(=O)C1=CO[C@@H](O)[C@@H]2C(CO)=CC[C@H]12 [genipin, methyl (1S,2R,6S)-2-hydroxy-9-(hydroxymethyl)-3-oxabicyclo[4.3.0]nona-4,8-diene-5-carboxylate]
- cell death to L929 fibroblasts (exposures of 5 mM and 10 mM): can cause cell death
- cytotoxicity, cell samples compared with controls (incubated in 1 mM): indistinguishable from controls
